The values below come from patent US11207409B2, “X-RAY psoralen activated cancer therapy (X-PACT) with associated treatments” (priority 2017, dated 2021).

This data set deals with murine tumor cell lines (breast-4T1, glioma-CT2A, and sarcoma KP15B8).

Procedure: Guava Annexin V flow cell cytometry was used to quantify cytotoxicity in 3 murine tumor cell lines (breast-4T1, glioma-CT2A, and sarcoma KP15B8). In-vitro X-PACT studies were conducted on cells prepared in the following manner. Cells were incubated in appropriate growing media and buffers before being trypsinized and plated evenly onto twelve (12) well plates for 24 hours. About 20 minutes prior to X-PACT irradiation, the wells of each plate were exposed to the following combinations of additives: (1) control ˜cells only with no additives, (2) UVADEX only, (3) phosphors only, (4) UVADEX+phosphors. […] The plates were then irradiated with x-rays by placing the plate at a known distance from the x-ray source (e.g., 50 cm). […]
Two primary flow cytometry metrics were used to evaluate the X-PACT treatments, both determined at 48h after X-PACT treatment. […] The first metric is metabolically viable cell count (or cell viability) determined from the number of whole cells per well as determined using forward scattering (FSC). […] (All wells on a given plate receive the same dose.) The second metric is Annexin V (+) signal, which is the fraction of the metabolically viable cells which expressed a positive Annexin V signal as determined by flow cell cytometry, and include any cells advancing toward early or late apoptotic cell death. […]

In the case of “3Ca3(PO4)2•Ca(Fl,Cl)2:Sb^3+,Mn^2+ [GTP 4300]”, the “% Viability (1-Toxicity)” value is listed as 70%. Take Zn2SiO4:Mn: the “% Viability (1-Toxicity)” value was determined as 75%.
